According to PubChem BioAssay (NCI):
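Test compounds were applied to cells in 96-well plates for 48 hours at 5 doses. At the GI50, growth is halved. At the TGI there is no net growth.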

Columns and labels:
Experiment in all cases: growth of human tumour cells (NCI), 48 h
PC-3 prostate = test system: PC-3 prostate
786-0 renal = test system: 786-0 renal
UACC-257 melanoma = test system: UACC-257 melanoma
SN12C renal = test system: SN12C renal
U251 CNS = test system: U251 CNS
SNB-19 CNS = test system: SNB-19 CNS
HCC-2998 colon = test system: HCC-2998 colon
HCT-15 colon = test system: HCT-15 colon
HOP-92 NSCLC = test system: HOP-92 NSCLC
NCI-H23 lung = test system: NCI-H23 lung
UO-31 renal = test system: UO-31 renal
UACC-62 melanoma = test system: UACC-62 melanoma
SNB-75 CNS = test system: SNB-75 CNS
RPMI-8226 leukemia = test system: RPMI-8226 leukemia
HL-60(TB) leukemia = test system: HL-60(TB) leukemia
HOP-62 NSCLC = test system: HOP-62 NSCLC
OVCAR-3 ovarian = test system: OVCAR-3 ovarian
MDA-MB-231 breast = test system: MDA-MB-231 breast
ACHN renal = test system: ACHN renal
KM12 colon = test system: KM12 colon
A498 renal = test system: A498 renal
OVCAR-8 ovarian = test system: OVCAR-8 ovarian
SR leukemia = test system: SR leukemia
CCRF-CEM leukemia = test system: CCRF-CEM leukemia
MOLT-4 leukemia = test system: MOLT-4 leukemia
OVCAR-4 ovarian = test system: OVCAR-4 ovarian
BT-549 breast = test system: BT-549 breast
SK-MEL-2 melanoma = test system: SK-MEL-2 melanoma
SF-539 CNS = test system: SF-539 CNS
LOX IMVI melanoma = test system: LOX IMVI melanoma
NCI-H460 lung = test system: NCI-H460 lung
K-562 leukemia = test system: K-562 leukemia
MDA-MB-435 = test system: MDA-MB-435
HS 578T breast = test system: HS 578T breast
SW-620 colon = test system: SW-620 colon
NCI-H522 lung = test system: NCI-H522 lung
DU-145 prostate = test system: DU-145 prostate
M14 melanoma = test system: M14 melanoma
HT29 colon = test system: HT29 colon
SK-MEL-5 melanoma = test system: SK-MEL-5 melanoma
TK-10 renal = test system: TK-10 renal
OVCAR-5 ovarian = test system: OVCAR-5 ovarian
NCI-H226 lung = test system: NCI-H226 lung
IGROV1 ovarian = test system: IGROV1 ovarian
RXF 393 renal = test system: RXF 393 renal
CAKI-1 renal = test system: CAKI-1 renal
SK-MEL-28 melanoma = test system: SK-MEL-28 melanoma
A549 NSCLC = test system: A549 NSCLC
T-47D breast = test system: T-47D breast
SF-295 CNS = test system: SF-295 CNS
COLO 205 colon = test system: COLO 205 colon
SF-268 CNS = test system: SF-268 CNS
HCT-116 colon = test system: HCT-116 colon
MALME-3M melanoma = test system: MALME-3M melanoma
MDA-MB-468 breast = test system: MDA-MB-468 breast
MCF7 breast = test system: MCF7 breast
SK-OV-3 ovarian = test system: SK-OV-3 ovarian

Compound: O=C(Nc1ccc(I)cc1F)c1cc(-c2ccc(F)cc2F)ccc1O
- GI50 (PC-3 prostate): 3.09 µM
- TGI (PC-3 prostate): > 100 µM
- GI50 (786-0 renal): 3.06 µM
- TGI (786-0 renal): 9.11 µM
- GI50 (UACC-257 melanoma): 2.41 µM
- TGI (UACC-257 melanoma): 7.15 µM
- GI50 (SN12C renal): 2.34 µM
- TGI (SN12C renal): 6.88 µM
- GI50 (U251 CNS): 2.31 µM
- TGI (U251 CNS): 5.94 µM
- GI50 (SNB-19 CNS): 3.38 µM
- TGI (SNB-19 CNS): > 100 µM
- GI50 (HCC-2998 colon): 3.12 µM
- TGI (HCC-2998 colon): 26.5 µM
- GI50 (HCT-15 colon): 3.07 µM
- TGI (HCT-15 colon): 28.8 µM
- GI50 (HOP-92 NSCLC): 2.42 µM
- TGI (HOP-92 NSCLC): 5.93 µM
- GI50 (NCI-H23 lung): 2.14 µM
- TGI (NCI-H23 lung): 6.04 µM
- GI50 (UO-31 renal): 2.44 µM
- TGI (UO-31 renal): 9.57 µM
- GI50 (UACC-62 melanoma): 2.32 µM
- TGI (UACC-62 melanoma): 6.89 µM
- GI50 (SNB-75 CNS): 1.49 µM
- TGI (SNB-75 CNS): 3.92 µM
- GI50 (RPMI-8226 leukemia): 2.1 µM
- TGI (RPMI-8226 leukemia): 5.67 µM
- GI50 (HL-60(TB) leukemia): 1.8 µM
- TGI (HL-60(TB) leukemia): 5.66 µM
- GI50 (HOP-62 NSCLC): 1.97 µM
- TGI (HOP-62 NSCLC): 4.91 µM
- GI50 (OVCAR-3 ovarian): 3.04 µM
- TGI (OVCAR-3 ovarian): 9.16 µM
- GI50 (MDA-MB-231 breast): 1.88 µM
- TGI (MDA-MB-231 breast): 4.31 µM
- GI50 (ACHN renal): 3.06 µM
- TGI (ACHN renal): 11.1 µM
- GI50 (KM12 colon): 2.78 µM
- TGI (KM12 colon): 8.1 µM
- GI50 (A498 renal): 2.54 µM
- TGI (A498 renal): 7.14 µM
- GI50 (OVCAR-8 ovarian): 3.17 µM
- TGI (OVCAR-8 ovarian): 32.9 µM
- GI50 (SR leukemia): 2.49 µM
- TGI (SR leukemia): 8.71 µM
- GI50 (CCRF-CEM leukemia): 3.31 µM
- TGI (CCRF-CEM leukemia): 17 µM
- GI50 (MOLT-4 leukemia): 2.58 µM
- TGI (MOLT-4 leukemia): 9.32 µM
- GI50 (OVCAR-4 ovarian): 3.16 µM
- TGI (OVCAR-4 ovarian): 27.1 µM
- GI50 (BT-549 breast): 2.36 µM
- TGI (BT-549 breast): 6.08 µM
- GI50 (SK-MEL-2 melanoma): 1.79 µM
- TGI (SK-MEL-2 melanoma): 4.16 µM
- GI50 (SF-539 CNS): 3.2 µM
- TGI (SF-539 CNS): 11.6 µM
- GI50 (LOX IMVI melanoma): 3.21 µM
- TGI (LOX IMVI melanoma): 10.9 µM
- GI50 (NCI-H460 lung): 2.78 µM
- TGI (NCI-H460 lung): 8.42 µM
- GI50 (K-562 leukemia): 2.77 µM
- TGI (K-562 leukemia): 11 µM
- GI50 (MDA-MB-435): 2.59 µM
- TGI (MDA-MB-435): 7.58 µM
- GI50 (HS 578T breast): 2.58 µM
- TGI (HS 578T breast): 7.38 µM
- GI50 (SW-620 colon): 3.31 µM
- TGI (SW-620 colon): 13.6 µM
- GI50 (NCI-H522 lung): 2.71 µM
- TGI (NCI-H522 lung): 8.62 µM
- GI50 (DU-145 prostate): 3.68 µM
- TGI (DU-145 prostate): > 100 µM
- GI50 (M14 melanoma): 2.05 µM
- TGI (M14 melanoma): 5.48 µM
- GI50 (HT29 colon): 3.77 µM
- TGI (HT29 colon): > 100 µM
- GI50 (SK-MEL-5 melanoma): 1.72 µM
- TGI (SK-MEL-5 melanoma): 3.29 µM
- GI50 (TK-10 renal): 3.96 µM
- TGI (TK-10 renal): 11.1 µM
- GI50 (OVCAR-5 ovarian): 6.63 µM
- TGI (OVCAR-5 ovarian): > 100 µM
- GI50 (NCI-H226 lung): 2.21 µM
- TGI (NCI-H226 lung): 6.3 µM
- GI50 (IGROV1 ovarian): 4.65 µM
- TGI (IGROV1 ovarian): > 100 µM
- GI50 (RXF 393 renal): 1.88 µM
- TGI (RXF 393 renal): 5.45 µM
- GI50 (CAKI-1 renal): 1.71 µM
- TGI (CAKI-1 renal): 4.83 µM
- GI50 (SK-MEL-28 melanoma): 3.76 µM
- TGI (SK-MEL-28 melanoma): > 100 µM
- GI50 (A549 NSCLC): 3.09 µM
- TGI (A549 NSCLC): 47.4 µM
- GI50 (T-47D breast): 2.12 µM
- TGI (T-47D breast): 6.04 µM
- GI50 (SF-295 CNS): 2.12 µM
- TGI (SF-295 CNS): 4.91 µM
- GI50 (COLO 205 colon): 1.91 µM
- TGI (COLO 205 colon): 4.13 µM
- GI50 (SF-268 CNS): 3.1 µM
- TGI (SF-268 CNS): > 100 µM
- GI50 (HCT-116 colon): 2.8 µM
- TGI (HCT-116 colon): 8.81 µM
- GI50 (MALME-3M melanoma): 2.98 µM
- TGI (MALME-3M melanoma): 7.93 µM
- GI50 (MDA-MB-468 breast): 2.2 µM
- TGI (MDA-MB-468 breast): 5.76 µM
- GI50 (MCF7 breast): 2.7 µM
- TGI (MCF7 breast): 11 µM
- GI50 (SK-OV-3 ovarian): 2.04 µM
- TGI (SK-OV-3 ovarian): 5.55 µM
